Experimental data: ChEMBL document CHEMBL1759865, “Synthesis, biological assessment and molecular modeling of 14-aryl-10,11,12,14-tetrahydro-9H-benzo[5,6]chromeno[2,3-b]quinolin-13-amines” (Bioorg Med Chem Lett, 2011)
Active and inactive are the calls of the source. The calls are words filed in the database; no cut-off is given here.

Columns and labels:
[1] = test system: SH-SY5Y; experiment: Neuroprotective activity in human SH-SY5Y cells by MTT assay; format: functional
[2] = species: Bos taurus; experiment: Inhibition of K(+)-induced intracellular Ca2+ uptake in bovine Chromaffin cells at 100 uM; format: functional, cell-based
[3] = target: T1, Acetylcholinesterase (Electrophorus electricus, UniProt O42275)
Description: Inhibition of Electrophorus electricus acetylcholinesterase preincubated with compound for 10 mins using acetylcholine iodide as substrate after 15 mins by spectrophotometric analysis

[4] = target: Cholinesterase (Equus caballus, UniProt P81908)
Description: Inhibition of horse serum butyrylcholinesterase preincubated with compound for 10 mins using butrylcholine iodide as substrate after 15 mins by spectrophotometric analysis

[5] = target: Acetylcholinesterase (Electrophorus electricus) (UniProt O42275); experiment: Ratio of compound IC50 to tacrine IC50 for Electrophorus electricus acetylcholinesterase
[6] = target: T1, Acetylcholinesterase; experiment: Mixed inhibition of Electrophorus electricus acetylcholinesterase using […] substrate by Ellman's method
[7] = target: T2, Acetylcholinesterase (Bos taurus) (UniProt P23795); experiment: Displacement of propidium iodide from peripheral anionic site of bovine erythrocyte AChE at 0.1 to 3 uM after 20 hrs by fluorescence plate reader
T2 sequence (whole entry): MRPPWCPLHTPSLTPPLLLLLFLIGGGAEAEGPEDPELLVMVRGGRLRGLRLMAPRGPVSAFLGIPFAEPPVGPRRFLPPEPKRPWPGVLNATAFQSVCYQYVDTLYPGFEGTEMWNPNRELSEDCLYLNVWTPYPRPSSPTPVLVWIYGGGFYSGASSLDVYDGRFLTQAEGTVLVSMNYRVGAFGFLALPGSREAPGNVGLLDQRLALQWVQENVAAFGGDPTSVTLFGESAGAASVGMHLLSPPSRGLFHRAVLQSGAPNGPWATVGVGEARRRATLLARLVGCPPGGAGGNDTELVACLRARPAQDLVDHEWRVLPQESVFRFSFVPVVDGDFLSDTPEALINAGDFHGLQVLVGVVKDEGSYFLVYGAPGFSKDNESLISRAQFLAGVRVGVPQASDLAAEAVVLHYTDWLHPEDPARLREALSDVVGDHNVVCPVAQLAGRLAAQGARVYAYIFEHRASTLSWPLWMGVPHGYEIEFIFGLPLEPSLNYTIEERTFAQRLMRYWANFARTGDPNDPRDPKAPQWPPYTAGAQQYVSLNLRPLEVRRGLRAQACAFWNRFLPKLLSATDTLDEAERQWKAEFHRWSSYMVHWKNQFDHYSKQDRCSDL

[8] = Inhibition of […]-induced intracellular Ca2+ uptake in bovine Chromaffin cells at 100 uM; format: functional; settings: Bos taurus

Sequence of Cholinesterase (P81908 whole entry): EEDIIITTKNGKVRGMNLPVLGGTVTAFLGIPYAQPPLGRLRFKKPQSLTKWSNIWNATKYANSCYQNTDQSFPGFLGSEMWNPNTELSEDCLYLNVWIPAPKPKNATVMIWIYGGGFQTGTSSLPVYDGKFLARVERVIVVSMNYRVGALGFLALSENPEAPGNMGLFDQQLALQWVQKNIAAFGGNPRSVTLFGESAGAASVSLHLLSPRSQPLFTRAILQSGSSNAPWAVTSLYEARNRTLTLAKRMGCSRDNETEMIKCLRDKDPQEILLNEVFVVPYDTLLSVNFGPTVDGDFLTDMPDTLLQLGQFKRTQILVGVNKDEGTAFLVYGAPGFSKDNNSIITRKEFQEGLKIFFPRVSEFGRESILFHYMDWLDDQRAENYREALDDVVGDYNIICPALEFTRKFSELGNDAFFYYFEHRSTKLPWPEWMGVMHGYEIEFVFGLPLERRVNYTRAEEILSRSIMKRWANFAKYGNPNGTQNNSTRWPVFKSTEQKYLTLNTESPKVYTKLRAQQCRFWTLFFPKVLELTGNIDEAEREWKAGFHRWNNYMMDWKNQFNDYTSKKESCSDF
T1 sequence (O42275 whole entry): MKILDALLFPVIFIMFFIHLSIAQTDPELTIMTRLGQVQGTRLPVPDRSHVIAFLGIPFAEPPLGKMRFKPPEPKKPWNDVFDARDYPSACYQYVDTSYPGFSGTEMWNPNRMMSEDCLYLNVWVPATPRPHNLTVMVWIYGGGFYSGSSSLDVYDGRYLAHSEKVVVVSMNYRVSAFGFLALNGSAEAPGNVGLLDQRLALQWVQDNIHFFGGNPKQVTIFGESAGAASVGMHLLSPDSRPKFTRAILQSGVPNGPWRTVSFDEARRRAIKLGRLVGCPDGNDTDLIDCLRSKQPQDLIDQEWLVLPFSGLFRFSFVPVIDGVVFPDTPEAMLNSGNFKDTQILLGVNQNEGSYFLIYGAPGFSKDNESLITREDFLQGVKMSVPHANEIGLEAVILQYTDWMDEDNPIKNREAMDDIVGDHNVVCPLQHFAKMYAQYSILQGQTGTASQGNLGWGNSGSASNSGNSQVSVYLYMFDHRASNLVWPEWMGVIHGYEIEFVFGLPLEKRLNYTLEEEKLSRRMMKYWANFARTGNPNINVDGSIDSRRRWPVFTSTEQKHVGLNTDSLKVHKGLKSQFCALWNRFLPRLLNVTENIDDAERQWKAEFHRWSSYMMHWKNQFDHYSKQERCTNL
Sequence of Acetylcholinesterase (Electrophorus electricus) (O42275 24-633 limits assumed): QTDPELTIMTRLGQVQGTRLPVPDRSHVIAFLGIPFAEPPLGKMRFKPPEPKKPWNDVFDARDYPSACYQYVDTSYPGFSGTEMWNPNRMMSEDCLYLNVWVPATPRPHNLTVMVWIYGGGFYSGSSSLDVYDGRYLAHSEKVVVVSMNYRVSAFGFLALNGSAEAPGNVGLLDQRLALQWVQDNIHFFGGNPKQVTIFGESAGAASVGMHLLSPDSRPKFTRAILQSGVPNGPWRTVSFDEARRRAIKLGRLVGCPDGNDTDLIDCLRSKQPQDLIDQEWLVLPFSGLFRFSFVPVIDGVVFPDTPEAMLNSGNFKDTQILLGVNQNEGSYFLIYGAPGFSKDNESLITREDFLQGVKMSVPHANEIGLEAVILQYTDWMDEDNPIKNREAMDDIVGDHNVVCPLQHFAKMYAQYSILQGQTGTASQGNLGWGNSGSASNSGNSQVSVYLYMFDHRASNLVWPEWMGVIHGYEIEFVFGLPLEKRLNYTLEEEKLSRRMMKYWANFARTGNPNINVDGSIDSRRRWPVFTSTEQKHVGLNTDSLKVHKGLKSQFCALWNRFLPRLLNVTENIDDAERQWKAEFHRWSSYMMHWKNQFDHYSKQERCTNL

SMILES	Activity [1]	Activity [2]	IC50 [3]	IC50 [4]	Ratio IC50 [5]	Ki [6]	Activity [7]	inhibition at 100 µM [8]
COc1cc(C2c3c(nc4c(c3N)CCCC4)Oc3ccc4ccccc4c32)ccc1O (racemic)	<17%	inactive	28 nM	> 10000 nM				
COc1ccc(C2c3c(nc4c(c3N)CCCC4)Oc3ccc4ccccc4c32)cc1OC (racemic)	<17%	inactive	26 nM	> 10000 nM				
Nc1c2c(nc3c1C(c1ccc([N+](=O)[O-])cc1)c1c(ccc4ccccc14)O3)CCCC2 (racemic)	<17%	inactive	170 nM	> 10000 nM				
Nc1c2c(nc3c1C(c1ccc(O)cc1)c1c(ccc4ccccc14)O3)CCCC2 (racemic)	<17%	inactive	7 nM	> 10000 nM	4	5 nM	inactive	
COc1ccccc1C1c2c(nc3c(c2N)CCCC3)Oc2ccc3ccccc3c21 (racemic)	<17%	inactive	20 nM	> 10000 nM				
COc1cc(C2c3c(nc4c(c3N)CCCC4)Oc3ccc4ccccc4c32)cc(OC)c1OC (racemic)	<17%	inactive	26 nM	> 10000 nM				
CCOC(=O)C1=C(C)Oc2nc3c(c(N)c2C1c1ccc(OC)cc1)CCCC3 (centres undefined)								90%
COc1cc(C2c3c(nc4c(c3N)CCC4)Oc3ccc4ccccc4c32)ccc1O (racemic)	<17%	inactive	101 nM	> 10000 nM				
Cc1ccc(C2c3c(nc4c(c3N)CCCC4)Oc3ccc4ccccc4c32)cc1 (racemic)	<17%	inactive	43 nM	> 10000 nM				
COc1cccc(C2c3c(nc4c(c3N)CCCC4)Oc3ccc4ccccc4c32)c1 (racemic)	<17%	inactive	16 nM	> 10000 nM				
COc1ccc(C2c3c(nc4c(c3N)CCCC4)Oc3ccc4ccccc4c32)cc1 (racemic)	<17%	inactive	18 nM	> 10000 nM				
